{"source": "patent US20240099944A1", "about": "“Stable Skin Care Compositions Containing a Retinoid” (priority 2022, published 2024)", "experiment": "Yellow discoloration (b-value) by Color Test Method, accelerated stability 60° C. for two weeks", "assay_type": "physicochemical", "details": "away from direct light, Example 2 with additional ingredient compared to Example 2", "protocol": "This test was performed under accelerated stability conditions of 60° C., away from direct light for two weeks and the samples were stored in containers that limited the free flow of oxygen. […] The b-value was determined by the Color Test Method, described hereafter.\nIn Example 2, the DMDM hydantoin and iodopropynyl butylcarbamate preservative is replaced with a preservative system comprising hydroxyacetophenone and phenoxyethanol.\nTo measure the color of the compositions of the present invention, approximately 8 mL of the product to be tested is transferred into a petri dish (35×10 mm disposable) using a syringe. The Petri dish is then placed on the black half of a standard opacity chart (Form N2A, Leneta Company of Manwah, NJ or the equivalent thereof, of which the top half is black and the bottom half is white). The color (L, a, and b values) of the product in the petri dish is then measured using an integrated sphere spectrophotometer with settings selected to exclude specular reflection. The value for “a” correlates to a value along the red-green (horizontal) axis, and the value for “b” correlates to a value along the blue-yellow (vertical) axis. […] A more positive or negative value represents a more intense color. […]"}
{"smiles": "O=S([O-])[O-].[Na+].[Na+]", "note": "[sodium sulfite]", "values": [{"measurement": "b-value vs. Example 2 (Control)", "result": "dramatically reduced the composition's b-value"}]}
